Series [1] relates to OPCs. Briefly: OPC differentiation on myelin protein extract (MPE) or myelin substrate, O4 immunocytochemistry, pharmacological agents. It is filed as cell-based, Sprague-Dawley rat. The following applies: for max. mean increase of OPC differentiation: 48 hours incubation in differentiation medium, Fig. 4; for mean increase of OPC differentiation: OPCs on myelin (MPE); for OPC differentiation / O4 expression in the presence of myelin inhibitors (result in words): differentiation medium. As for the experimental part:
Primary cultures of oligodendrocyte precursor cells were isolated from PO-P2 neonatal Sprague-Dawley rat forebrains following a Standard protocol (McCarthy et al., J Cell Biol 85 (1980): 890-902) that were adapted for the present purpose (Syed et al. 2008, supra). In brief, hemispheres were stripped free of meninges, after a digestion step the cells were plated into cell culture flasks and mixed glia cultures were grown for approx. 10 days in DMEM medium supplemented with 10% PCS at 37°C and 7,5% CO2. To remove the loosely attached microglia the flasks were shaken for 1 hour at 260rpm on an orbital shaker before being shaken at 260rpm overnight to dislodge the loosely attached oligodendrocyte precursors. OPCs were further purified from contaminating microglia by a differential adhesion step. Subsequently OPCs were plated onto polylysine (PLL)-coated or Substrate coated dishes. To maintain cells at an early precursor stage PDGF-AA (Pepro Tech) and FGF (Pepro Tech) were added (10ng/ml) to SATOs medium. To induce differentiation cells were incubated in SATOs medium supplemented with 0.5% FCS. The purity of each culture was monitored following OPC purification by immunocytochemistry and only cultures with >94% purity were used. In the cultures minor contaminations of microglia that can be detected by isolectin staining and which amount to 4-5% of the cells, as well as by astrocytes (detectable by GFAP) and fibroblasts with distinct morphology, which account for about 1-2% of the cells are present.
To prepare myelin protein extract (MPE) the pellets were re-suspended in 1% N-octyl β-D-glucopyranoside, 0.2M Sodiumphosphate pH 6.8, 0.1 M Na2SO4 and 1mM EDTA and incubated at 23°C for 2 hours. Following an ultracentrifugation step (100,000 x g, 18°C, 30 min) the supernatants were collected and stored at -20°C until further usage.
The pooled OPCs harvested as outlined above were seeded at the same density of 20000 cells per well into polylysine (PLL)-coated 8-well chamber slides. Cells were differentiated for 48 hours and subsequently fixed with 4% paraformaldehyde in PBS, permeabilised and blocked with 0.3% Triton X-100 and 10% NGS. To assess the differentiation state of OPCs the cells were incubated with 04 antibody (1:100; Chemicon) for 1 hour in the presence of 0.1% Triton X-100 and 2% NGS, washed, and incubated for another 1 hour with the appropriate fluorescent secondary antibody (Cy3-conjugated antibody 1:100; Jackson Immuno Research) and the nuclei were stained using DAPI (Robinson et al., Dev Biol 216 (1999): 359-368; Syed et al. 2008, supra). It is important to note that permeabilisation of cells results in a punctate representation of the extracellular antigen 04 (Reynolds et al., Curr Opin Biotechnol 4 (1993): 734-738; Weiss et al., J Neurosci 16 (1996): 7599-7609; Syed et al. 2008, supra). Under an Olympus X51 fluorescent microscope using a triple-filter the percentage of O4-positive cells in relation to >100 DAPI-stained nuclei in randomly selected eye fields for each experimental condition were determined. To establish the purity of the OPC cultures immunocytochemistry for A2B5 (1:100; Chemicon) was performed according to the same principles and the percentage of A2B5+ cells to >100 DAPI-stained nuclei in randomly selected eye fields was determined. Only cell cultures with >94% A2B5-pos. cells were used for the present study. To assess the morphological phenotype of OPCs, A2B5+-cells were categorised according to the following criteria: stage 1: mono/bipolar; stage II: multipolar, primary branched; stage III: multipolar, secondary branched; stage IV: secondary branched cells with membranous processes.
To examine whether ROCK-II and PKC Signal transduction is implicated in the myelin mediated differentiation block, pharmacological inhibitors were added to the culture medium immediately after cell seeding. […]

Series [2] has as its system OPCs. The series is described as follows: TUNEL assay (apoptosis). It is filed as cell-based, Sprague-Dawley rat. As to conditions: treated OPCs on MPE vs OPCs on PLL control, Fig. 7. The protocol:
Fragmented DNA was detected by incorporation of biotinylated nucleotides at the 3'-OH DNA ends using Terminal Deoxynucleotidyl Transferase recombinant (rTdT) enzyme according to the manufacturer's instruction (Promega). Stained cells were visualized by light microscopy and the percentage of apoptotic nuclei was determined.

For another series, the system named is CREB. Briefly: CREB phosphorylation in OPCs (immunoprecipitation, Western blot for phospho-CREB). It is filed as cell-based, Sprague-Dawley rat. The following applies: in the presence of MAI, Fig. 14. (In western blotting, separated proteins are transferred to a membrane and probed.)
For a further series, the system named is demyelinating lesions. Briefly: Remyelination in vivo after ethidium bromide lesions, blind ranking of semithin resin sections. More on the design: species or system Sprague Dawley rats. The following applies: 0.5 mg/kg/d s.c. osmotic pumps, 14 days post lesion induction, preliminary. As for the experimental part: The in vitro finding that rolipram is able to promote OPC differentiation in the presence of MAI was further developed to confirm remyelination in vivo. For this purpose demyelinating lesions were induced by topic injection of ethidium bromide into white matter tracts of young adult Sprague Dawley rats, and rolipram was applied subcutaneously by continuous osmotic pumps. 0,5mg/KG/d of rolipram was used in the first set of experiments that assessed the rate of remyelination. […] This is the first experiment that succeeded in enhancing the efficiency of remyelination in this model (Fig. 16).

The test system of a further series is EB lesions. The series is described as follows: In situ hybridisation for cell markers in EB lesions. It is filed as in vivo, Sprague-Dawley rats. The following applies: 0,5mg/KG/d s.c.; for number of active OPCs (Nkx2.2): day 7, vs PBS vehicle; for macrophage marker MRSB (immune response): day 7 and day 14, vs PBS vehicle; for number of PDGFR-α positive OPCs in lesions / number of PLP positive cells (mature oligodendrocytes): day 14, vs PBS vehicle. The protocol: To validate the finding that administration of rolipram promotes CNS remyelination, the experiments were repeated as follows. EB lesions were induced in Sprague-Dawley rats, and rats were treated either with rolipram (0,5mg/KG/d) or PBS vehicle administered via s.c. osmotic pumps implanted 3 days post lesion induction. Animals were sacrificed at day 7 and day 14 post lesion induction and the tissue processed for in situ hybridization. The lesion area was visualized and measured on digitized solochrome cyanine stained sections and the number of cells within the lesion area as detected by ISH was determined.
PDGFR-α, a general marker for OPCs, was used to determine the presence of OPCs in the lesions.
Nkx2.2 can be used to detect activated OPCs within remyelinating lesions.
To detect mature oligodendrocytes, in situ hybridization for PLP was conducted. The extent of remyelination in control animals at 14 days is minimal. As to be expected in control animals the number of PLP positive cells remained unchanged at day 7 and day 14.
Finally, ISH for MRSB, a marker for macrophages, was used to determine whether rolipram treatment affects the immune response.

Entries after “also recorded” stand apart in the source; their conditions may differ.

As to `[H]/N=C(/N)SCCCn1cc(C2=C(c3cn(C)c4ccccc34)C(=O)NC2=O)c2ccccc21` [BIM, Bisindolylmaleimide IX], the “max. mean increase of OPC differentiation” value with OPCs [1] (OPCs on MPE) was 169%. For the same molecule, the “mean increase of OPC differentiation” value in the series with OPCs [1] (6.25nM, n=4) stood at 169%.
On to `O=S(=O)(c1cccc2cnccc12)N1CCCNCC1` [HA-1077, 1-(5-lsoquinolinesulfonyl)-1H-hexahydro-1,4-diazepine 2 HCI], for which, in the series with OPCs [1] (OPCs on MPE, 5µM, 48 hours in differentiation medium, n=4), the “mean increase in the number of differentiating OPCs” value turned out to be 174%. The “increase of differentiating cells” value in the series with OPCs [1] (OPCs on MPE, 48h culture in differentiation medium, Fig. 3b) is listed as “more than 160%”. In the series on OPCs [1] (OPCs on MPE), the “OPC differentiation / O4 expression in the presence of myelin inhibitors (result in words)” value was “largely restored”. Besides, the “apoptosis, TUNEL positive cells” value in the series on OPCs [2] is on record as “no significant differences”.
For the molecule `CCCC(=O)Nc1ncnc2c1ncn2[C@@H]1O[C@@H]2COP(=O)([O-])O[C@H]2[C@H]1OC(=O)CCC.[Na+]` [db-cAMP], in the series on OPCs [1] (OPCs on MPE), the “OPC differentiation / O4 expression in the presence of myelin inhibitors (result in words)” value is given as “partially overcome”.
In the case of “12-(2-cyanoethyl)-6,7,12,13-tetrahydro-13-methyl-5-oxo-5H-indolo[2,3-a]pyrrollo[3,4-c]carbazole [Gö6976]”, in the series on OPCs [1] (OPCs on MPE), the “max. mean increase of OPC differentiation” value is on record as 269%. Also, in the series on OPCs [1] (50nM, n=3), the “mean increase of OPC differentiation” value came to 267%. In the series on OPCs [2], the “apoptosis, TUNEL positive cells” value is on record as “no differences”.
For `NCCCCN` [putrescine], the “OPC differentiation / O4 expression in the presence of myelin inhibitors (result in words)” value was “not the case” in the series with OPCs [1] (OPCs on MPE) and “does not stimulate OPC differentiation” in the series with OPCs [1] (OPCs on MPE, listed as Putrescine).
Turning to `COc1ccc(C2CNC(=O)C2)cc1OC1CCCC1` (centres unmarked) [rolipram], in the series on OPCs [1] (0.5µM in the medium), the “differentiation capability of OPCs plated on MPE” value is on record as “completely restore”. The “OPC differentiation / O4 expression in the presence of myelin inhibitors (result in words)” value in the series on OPCs [1] (OPCs on MPE) is listed as “able to induce OPC differentiation; also recorded: able to restore OPC differentiation”. Also, the “CREB phosphorylation / activation in OPCs” value in the series with CREB was “restores CREB activation”. Moreover, in the series on CREB (listed as Rolipram), the “CREB phosphorylation / activation in OPCs” value is “inducing CREB phosphorylation”. Moreover, in the series with demyelinating lesions, the “extent of remyelination, rank assessment” value is “able to promote remyelination in-vivo; also recorded: potently enhanced”. For the same molecule, in the series with EB lesions, the “number of active OPCs (Nkx2.2)” value is “effectively increased”, the “macrophage marker MRSB (immune response)” value was “no differences detected”, the “number of PDGFR-α positive OPCs in lesions” value is reported as “remained elevated” and the “number of PLP positive cells (mature oligodendrocytes)” value is “significant increase”. Also, in the series on EB lesions (listed as Rolipram), the “number of active OPCs (Nkx2.2)” value is on record as “increase”, the “macrophage marker MRSB (immune response)” value is given as “did not affect the immune response”, the “number of PDGFR-α positive OPCs in lesions” value is listed as “maintained levels” and the “number of PLP positive cells (mature oligodendrocytes)” value is “strong increase”. Also, in the series on EB lesions (later stages (day 14), vs PBS vehicle), the “number of Nkx2.2 positive cells” value is “reached levels of control animals”.

These data come from patent EP2177218A1, “Regenerative therapy” (Medizinische Universität Wien, priority 2008, dated 2010).
